{"source": "patent US20080076772A1", "about": "“Anti-Inflammatory Agents” (Pharma Mar S.A. Sociedad Unipersonal, priority 2004, published 2008)", "key": {"monocytes": {"system": "monocytes", "test": "Monocytopenia in cancer patients after in vivo treatment (blood formula)", "set-up": "species or system human", "conditions": "of 9 patients; decrease = 25% inhibition in at least one cycle; % of leukocytes and monocytes/ul of blood", "excerpt": "We also investigated whether the in vivo treatment with ecteinascidin 743 caused a measurable monocytopenia in cancer patients. Monocyte values were obtained from blood formula during routine clinical analysis."}, "T lymphocytes": {"system": "T lymphocytes", "test": "Cell viability of purified T lymphocytes (PI staining, flow cytometry)", "assay_type": "cell-based, human", "conditions": "48 h", "procedure": "(§1) Purified populations of human blood monocytes were prepared as previously described by differential density centrifugation on Ficoll and Percoll gradients (see Allavena, P., Piemonti, L., Longoni, D., Bernasconi, S., Stoppacciaro, A., Ruco, L., and Mantovani, A. IL-10 prevents the differentiation of monocytes to dendritic cells but promotes their maturation to macrophages. Eur J Immunol, 28: 359-369, 1998). […] Human thymocytes were isolated from resected thymus from pediatric patients undergoing surgery. Thymocytes were obtained by teasing and isolated on Percoll gradient.\n(§2) Cell viability was analyzed by DNA content in Flow Cytometry\n(§3) Cells exposed to treatments were fixed with ethanol 70%, washed in PBS and stained with propidium iodide (PI) solution containing 10 ug/ml PI in PBS and 25 μl RNAse 10,000 units, overnight in the dark. PI incorporation was evaluated on at least 20,000 cells/sample using a FACS Calibur instrument (Becton Dickinson, Sunnyvale, Calif., USA), with a bandpass filter at 620 nm. Apoptosis was detected by staining with AnnexinV and PI. FACS analysis was performed using a bandpass filter 530 and 620 nm for green (AnnexinV) and red (PI) fluorescence respectively, in combination with a […] dichroic mirror.\n(§4) Purified preparations of blood monocytes, lymphocytes and thymocytes were cultured with different concentrations of ecteinascidin 743 for 48 h. […]"}, "in vitro": {"test": "in vitro", "conditions": "human", "procedure": "as §1\n(§5) Cells were cultured at 10^6 cells/ml in complete medium RPMI (Biochrom, Berlin, FRG)+10% FCS (Hyclone, Logan, Utah). In vitro differentiated macrophages were obtained by culture of monocytes Monocyte-Colony Stimulating Factor (M-CSF) Peprotech (20 ng/ml), for 5 days. In some experiments, macrophages were treated with LPS (100 ng/ml) Sigma Aldrich, IFN gamma (500 IU/ml) or IL-4 (20 ng/ml) (Schering Plough) for 24 h.\nas §2, §3\n(§6) Purified preparations of blood monocytes, lymphocytes and thymocytes were cultured with different concentrations of ecteinascidin 743 for 48 h. Cell viability was assessed by DNA analysis and propidium iodide (PI) staining in Flow cytometry.\n(§7) A kinetics analysis of the cytotoxic effect of ecteinascidin 743 was performed in the presence of M-CSF. Cells were treated with M-CSF (20 ng/ml) and different concentrations of ecteinascidin 743. Samples were collected at the indicated times and tested for DNA analysis.\n(§8) Viability was assessed by PI staining and analyzed by Flow Cytometry."}, "blood monocytes": {"system": "blood monocytes", "test": "in vitro", "procedure": "as §1, §5, §2, §3, §6, §7, §8"}, "thymocytes": {"system": "thymocytes", "test": "Cell viability of freshly isolated thymocytes (PI staining, flow cytometry)", "assay_type": "cell-based", "conditions": "Homo sapiens, Thymocyte, 48 h", "procedure": "as §1, §2, §3, §4"}, "IL-6 [1]": {"system": "IL-6", "test": "IL-6 release in TAM (ELISA)", "assay_type": "cell-based", "conditions": "Homo sapiens, n=4", "excerpt": "Tumour-associated macrophages (TAM) and tumour cells were isolated from the ascitic fluid of patients with diagnosed ovarian adenocarcinoma, admitted to the Clinic of Obstetrics and Gynecology of the University of Milan-Bicocca, S Gerardo Hospital. Cells contained in the ascitic fluid were centrifuged and isolated by differential density gradients of Ficoll and Percoll, and plastic adherence as previously described (see Allavena, P., Peccatori, F., Maggioni, D., Erroi, A., Sironi, M., Colombo, N., Lissoni, A., Galazka, A., Meiers, W., Mangioni, C., et al. Intraperitoneal recombinant gamma-interferon in patients with recurrent ascitic ovarian carcinoma: modulation of cytotoxicity and cytokine production in tumour-associated effectors and of major histocompatibility antigen expression on tumour cells. Cancer Res, 50: 7318-7323, 1990). Purity of TAM and tumour cell preparations was usually>65±10% as defined by morphology and phenotype analysis. Cells were treated with ecteinascidin 743 at the indicated concentrations and cultured for 1-5 days, as specified in figure legends. […]\nSupernatants of untreated cells or cells treated with ecteinascidin 743 or other anti-neoplastic agents were collected after 24 h culture and frozen. […] Determination of cytokines CCL2, TNF and IL-6 was measured by specific ELISA following the manufacturer's instructions. […]"}, "IL-6 [2]": {"system": "IL-6", "test": "IL-6 production by LPS-stimulated in vitro differentiated macrophages (ELISA)", "assay_type": "cell-based", "conditions": "Homo sapiens, Macrophage; 5 nM, n=2; read-out: overall inhibition of IL-6 production, macrophages", "procedure": "Supernatants of untreated cells or cells treated with ecteinascidin 743 or other anti-neoplastic agents were collected after 24 h culture and frozen. Monocytes, macrophages and TAM were stimulated with 100 ng/ml LPS to induce maximal cytokine production. Determination of cytokines CCL2, TNF and IL-6 was measured by specific ELISA following the manufacturer's instructions.\nMonocytes and in vitro differentiated macrophages were stimulated with LPS (100 ng/ml). After 1 h LPS stimulation they were treated with ecteinascidin 743. After 16 h incubation, cell supernatants were harvested and tested in ELISA. Under these treatment conditions cell viability was usually >85% for concentrations up to 5 nM. […] Mean inhibition at 5 nM, for monocytes, was 65% (range 50-80%, n=5) and was 50% (range 25-75%, n=5) for in vitro differentiated macrophages. Results are mean+/−SE of 3-5 experiments\nWe also tested two other cytokines, IL-6 and TNF, produced by macrophages and tumour cells, which have inflammatory properties and also act as growth factors for some tumours. IL-6 production was always reduced after ecteinascidin 743 treatment, with an overall inhibition at 5 nM of 54% (range 51-57%, n=2) and 69% (range 66-72%, n=2), in monocytes and macrophages, respectively (FIG. 6B). […]"}}}
{"compound": "COc1cc2c(cc1O)CCN[C@]21CS[C@@H]2c3c(OC(C)=O)c(C)c4c(c3[C@H](COC1=O)N1[C@@H]2[C@H]2c3c(cc(C)c(OC)c3O)C[C@@H]([C@@H]1O)N2C)OCO4", "note": "[ecteinascidin 743]", "values": [{"measurement": "patients showing a decrease in the number of monocytes", "setting": "monocytes", "result": 7}, {"measurement": "viability of T lymphocytes", "setting": "T lymphocytes; 5 nM", "result": "all alive"}, {"measurement": "IC50", "setting": "T lymphocytes; Homo sapiens, T-lymphocyte", "result": 0.02, "unit": "µM"}, {"measurement": "viability at 5 days, 0.0005 µM", "setting": "in vitro", "result": 92, "unit": "%"}, {"measurement": "viability at 5 days, 0.001 µM", "setting": "in vitro", "result": 70, "unit": "%"}, {"measurement": "monocyte death", "setting": "blood monocytes; 5 nM, 48 h incubation, with M-CSF", "result": 30, "unit": "%"}, {"measurement": "monocyte death", "setting": "blood monocytes; 5 nM, 48 h incubation, without M-CSF", "result": 55, "unit": "%"}, {"measurement": "monocyte death", "setting": "blood monocytes; 10 nM, 24 h treatment, with M-CSF", "result": 35, "unit": "%"}, {"measurement": "monocyte death", "setting": "blood monocytes; 10 nM, 24 h treatment, without M-CSF", "result": 65, "unit": "%"}, {"measurement": "IC50", "setting": "blood monocytes; Homo sapiens, Monocyte, 48 h, read-out: lethal dose 50% (IC50), monocyte mortality", "result": "0.0025 to 0.005", "unit": "µM"}, {"measurement": "mortality at 0.0025 µM", "setting": "blood monocytes; Homo sapiens, Monocyte, 120 h, read-out: mortality of monocytes", "result": "40 to 50", "unit": "%"}, {"measurement": "toxicity on monocytes (kinetics)", "setting": "blood monocytes; higher concentrations, after 24 h incubation, M-CSF 20 ng/ml", "result": "significant toxicity"}, {"measurement": "IC50", "setting": "thymocytes", "result": "> 0.04", "unit": "µM"}, {"measurement": "inhibition at 0.005 µM", "setting": "IL-6 [1]; 5 nM", "result": 35, "unit": "%"}, {"measurement": "inhibition at 0.01 µM", "setting": "IL-6 [1]; 10 nM", "result": 47, "unit": "%"}, {"measurement": "inhibition at 0.005 µM", "setting": "IL-6 [2]", "result": 69, "unit": "%"}]}
